Experimental data taken from patent publication US6608062B1 (dated 2003).

| melting point | Compound |
| --- | --- |
| 120 °C | Cn1ncnc1COc1nc2c(-c3ccccc3F)nncn2c1C1CCC1 |
| 160 °C | Cc1nnc(-c2ccccc2)c2nc(OCc3ncnn3C)c(C3CCC3)n12 |
| 186 °C | Cn1cnc(COc2nc3c(-c4ccccc4F)nncn3c2-c2ccccc2)n1 |
| 94 to 96 °C | CCn1ncnc1COc1nc2c(-c3ccccc3)nnc(C)n2c1C1CCCC1 |

The next lines start with the molecule.

| Compound | melting point |
| --- | --- |
| Cn1ncnc1COc1nc2c(-c3c(F)cccc3F)nncn2c1-c1ccccc1 | 190 °C |
| Cn1ncnc1COc1nc2c(-c3cc(F)ccc3F)nncn2c1-c1ccccc1 | 200 °C |
| Cn1ncnc1COc1nc2c(-c3ccc(F)cc3)nncn2c1-c1ccccc1 | 130 °C |
| Cn1ncnc1COc1nc2c(-c3ccccc3)nncn2c1-c1cccc(Cl)c1 | 80 to 84 °C |
| Cn1ncnc1COc1nc2c(-c3ccccc3)nncn2c1-c1ccccc1 (hydrate or solvate) | 179 °C |
| Cn1ncnc1COc1nc2c(-c3ccccc3F)nncn2c1-c1ccccc1 | 195 °C |
| Cc1nnc(-c2ccccc2)c2nc(OCc3ncnn3C)c(C3CCCC3)n12 | 137 °C |
